In patent US20260327242A1, “Platform and Scaffold for FAP Targeting Agents” (Erasmus University Medical Center Rotterdam, priority 2022, published 2026):
One block for each compound: values may come before it.

Legend:
[1] = vis-à-vis FAPI-04; cited from earlier work
FAP [2] = details: cited from earlier work
FAP [3] = molecular target: T1, FAP (Homo sapiens, UniProt Q12884); test: Competitive binding assay against [^111In]In-FAPI-46 in HT-1080.hFAP cells; details: 37° C., 1 h
T1 construct: expressed in transfected cells; host or cells: HT-1080.hFAP
T1 sequence (Q12884 1-760): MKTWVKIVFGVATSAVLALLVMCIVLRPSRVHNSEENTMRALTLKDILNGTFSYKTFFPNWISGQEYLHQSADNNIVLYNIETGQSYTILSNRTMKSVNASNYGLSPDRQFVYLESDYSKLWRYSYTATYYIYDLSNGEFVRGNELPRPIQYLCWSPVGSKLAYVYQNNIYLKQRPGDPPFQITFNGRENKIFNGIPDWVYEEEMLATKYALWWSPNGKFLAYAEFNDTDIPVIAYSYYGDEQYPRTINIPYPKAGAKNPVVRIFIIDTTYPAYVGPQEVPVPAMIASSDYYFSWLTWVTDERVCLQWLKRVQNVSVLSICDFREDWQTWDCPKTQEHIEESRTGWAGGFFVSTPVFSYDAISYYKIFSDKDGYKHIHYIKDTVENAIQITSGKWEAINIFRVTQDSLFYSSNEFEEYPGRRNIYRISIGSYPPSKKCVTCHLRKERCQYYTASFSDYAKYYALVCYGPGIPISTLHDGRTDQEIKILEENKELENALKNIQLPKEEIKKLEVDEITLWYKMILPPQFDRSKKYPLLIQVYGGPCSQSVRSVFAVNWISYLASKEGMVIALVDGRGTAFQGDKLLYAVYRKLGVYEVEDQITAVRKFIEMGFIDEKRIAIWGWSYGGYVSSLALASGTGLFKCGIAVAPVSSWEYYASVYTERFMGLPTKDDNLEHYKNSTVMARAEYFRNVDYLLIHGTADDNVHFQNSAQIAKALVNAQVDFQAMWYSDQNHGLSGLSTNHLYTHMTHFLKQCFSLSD
Procedure: The U-87 MG glioblastoma was cultured at 37° C. and 5% CO2 in Dulbecco's Modified Eagle Medium (DMEM) supplemented with 10% (v/v) fetal calf serum. HT-1080.hFAP cells were kept in culture in DMEM medium supplemented with fetal bovine serum (10%, FBS) and antibiotic antimycotic (1%, AA) at 37° C. and 5% CO2. For passaging, cells were detached using Trypsin-EDTA 0.05% when reaching 90% confluence and re-seeded at a dilution of 1:4.
Competition binding experiments were conducted by incubation of the [^111In]In-FAPI-46 radioligand with increasing concentrations of eFAP compound in HT-1080.hFAP cells at 37° C. for 1 h. Cells were then washed three times with binding buffer and lysed. The cell-associated radioactivity was measured in a γ-counter. The IC50 values were calculated by fitting the data by non-linear regression using GraphPad Prism.
Results with FABI-46 obtained in the same assay is included for comparison.

Compound: CN(CCCN1CCN(C(=O)CN2CCN(CC(=O)O)CCN(CC(=O)O)CCN(CC(=O)O)CC2)CC1)c1ccc2nccc(C(=O)NCC(=O)N3CC(F)(F)C[C@H]3C#N)c2c1 [FAPI-46]
- tumor-to-organ ratios (in words) [1]: improved tumor-to-organ ratios

Compound: N#C[C@@H]1CC(F)(F)CN1C(=O)CNC(=O)c1ccnc2ccccc12 [UAMC-1110]
- affinity to FAP (in words) (FAP [2]): nanomolar affinity to FAP

- binding affinity for FAP (in words) (FAP [3]): low nano-molar binding affinity for FAP
Compound: N#C[C@@H]1CC(F)(F)CN1C(=O)CNC(=O)c1ccnc2c(OCCCNC(=O)CN3CCN(CC(=O)O)CCN(CC(=O)O)CCN(CC(=O)O)CC3)cccc12 [eFAP-6, (S)-2,2′,2″-(10-(2-((3-((4-((2-(2-Cyano-4,4-difluoropyrrolidin-1-yl)-2-oxoethyl)carbamoyl)quinolin-8-yl)oxy)propyl)amino)-2-oxoethyl)-1,4,7,10-tetraazacyclododecane-1,4,7-triyl)triacetic acid]
